{"source": "patent US20230011571A1", "about": "“SMALL MOLECULE FURIN INHIBITORS FOR TREATING INFECTIOUS DISEASES” (BP Asset V, Inc., priority 2019, published 2023)", "format_in_all_cases": "cell-based", "key": {"[1]": {"test_system": "Chikungunya virus (CHIKV)", "assay": "microbe, parasite or virus in culture", "details": "Chikungunya virus, Vero, 48 h, read-out: Percent viral inhibition CHKV"}, "dengue virus (DENV)": {"test_system": "dengue virus (DENV)", "assay": "microbe, parasite or virus in culture", "details": "Dengue virus, Vero, 120 h, read-out: Percent viral inhibition DENY"}, "Marburg virus (MARV)": {"test_system": "Marburg virus (MARV)", "assay": "organism not typed", "details": "Vero, 72 h, read-out: Percent viral inhibition MARV"}, "[2]": {"test_system": "Chikungunya (S27; Vero 76)", "assay": "In vitro viral inhibition, Chikungunya", "details": "Chikungunya virus"}, "[3]": {"test_system": "Dengue Virus 2 (New Guinea C; Huh7)", "assay": "In vitro viral inhibition, Dengue Virus 2"}, "[4]": {"test_system": "Eastern equine encephalitis (FL39-939; Vero 76)", "assay": "cells"}, "[5]": {"test_system": "Japanese encephalitis virus (SA-14; Vero 76)", "assay": "In vitro viral inhibition, Japanese encephalitis virus"}, "[6]": {"test_system": "Mayaro virus (BE AR 505411; Vero 76)", "assay": "In vitro viral inhibition, Mayaro virus", "details": "strain BE AR 505411, Vero 76 cells", "method": "(§1) In vitro studies of the antiviral activity were also carried out for several viruses using Example 369."}, "Measles (CC; Vero 76)": {"test_system": "Measles (CC; Vero 76)", "assay": "In vitro viral inhibition, Measles", "details": "Measles morbillivirus, strain CC, Vero 76 cells", "method": "as §1"}, "[7]": {"test_system": "Powassan virus (LB; BHK-21)", "assay": "microbe, parasite or virus in culture"}, "[8]": {"test_system": "Respiratory syncytial virus (A2; RD)", "assay": "In vitro viral inhibition, Respiratory syncytial virus", "details": "human respiratory syncytial virus", "method": "as §1"}, "[9]": {"test_system": "Usutu virus (TC-508; Vero 76)", "assay": "In vitro viral inhibition, Usutu virus", "details": "strain TC-508, Vero 76 cells", "method": "as §1"}, "[10]": {"test_system": "Venezuelan equine encephalitis (TC-83; Vero 76)", "assay": "cells"}, "[11]": {"test_system": "Western equine encephalitis (California; Vero 76)", "assay": "cells"}, "[12]": {"test_system": "Yellow Fever (YFV 17D; Huh7)", "assay": "microbe, parasite or virus in culture"}, "[13]": {"details": "Vero 76, read-out: EC50 (ug/mL) (Neutral Red (NR) Assay)"}, "[14]": {"details": "Vero 76, read-out: EC50 (ug/mL) (VIS Drug Assay)"}, "[15]": {"details": "Huh-7, read-out: EC50 (ug/mL) (Neutral Red (NR) Assay)"}, "[16]": {"details": "Huh-7, read-out: EC50 (ug/mL) (VIS Drug Assay)"}, "[17]": {"details": "Neutral Red assay, read-out: EC50 (ug/mL) (Neutral Red (NR) Assay)"}, "[18]": {"details": "VIS assay, read-out: EC50 (ug/mL) (VIS Drug Assay)"}}, "note": "Read-outs that look alike come from different tables or passages of the source.", "data": [{"compound": "CC(=O)NCC1CCN(Cc2cc(Oc3cnc(N4CCN(CCC(C)C(=O)O)CC4)nc3)nc(-c3cc(Cl)cc(Cl)c3)c2)CC1", "note": "(stereo not drawn) [Example 369, 4-(4-(5-((4-((4-(acetamidomethyl)piperidin-1-yl)methyl)-6-(3,5-dichlorophenyl)pyridin-2-yl)oxy)pyrimidin-2-yl)piperazin-1-yl)-2-methylbutanoic acid]", "values": [{"measurement": "inhibition at 1 µM", "setting": "[1]", "value": 32.9, "unit": "%"}, {"measurement": "inhibition at 1 µM", "setting": "dengue virus (DENV)", "value": 33.3, "unit": "%"}, {"measurement": "inhibition at 1 µM", "setting": "Marburg virus (MARV)", "value": 47.1, "unit": "%"}, {"measurement": "EC50", "setting": "[2]; [13]", "value": 0.18, "unit": "µg/mL"}, {"measurement": "EC50", "setting": "[2]; [14]", "value": 0.12, "unit": "µg/mL"}, {"measurement": "EC50", "setting": "[3]; [15]", "value": "< 0.1", "unit": "µg/mL"}, {"measurement": "EC50", "setting": "[3]; [16]", "value": "< 0.1", "unit": "µg/mL"}, {"measurement": "EC50", "setting": "[4]; [13]", "value": "< 0.1", "unit": "µg/mL"}, {"measurement": "EC50", "setting": "[4]; [14]", "value": "< 0.1", "unit": "µg/mL"}, {"measurement": "EC50", "setting": "[5]; [13]", "value": 3, "unit": "µg/mL"}, {"measurement": "EC50", "setting": "[5]; [14]", "value": 0.32, "unit": "µg/mL"}, {"measurement": "EC50", "setting": "[6]; [17]", "value": 0.28, "unit": "µg/mL"}, {"measurement": "EC50", "setting": "[6]; [18]", "value": 0.32, "unit": "µg/mL"}, {"measurement": "EC50", "setting": "Measles (CC; Vero 76); [17]", "value": "< 0.1", "unit": "µg/mL"}, {"measurement": "EC50", "setting": "Measles (CC; Vero 76); [18]", "value": "< 0.1", "unit": "µg/mL"}, {"measurement": "EC50", "setting": "[7]; BHK-21, read-out: EC50 (ug/mL) (Neutral Red (NR) Assay)", "value": "< 0.1", "unit": "µg/mL"}, {"measurement": "EC50", "setting": "[7]; BHK-21, read-out: EC50 (ug/mL) (VIS Drug Assay)", "value": "< 0.1", "unit": "µg/mL"}, {"measurement": "EC50", "setting": "[8]; read-out: EC50 (ug/mL) (Neutral Red (NR) Assay)", "value": 0.3, "unit": "µg/mL"}, {"measurement": "EC50", "setting": "[8]; read-out: EC50 (ug/mL) (VIS Drug Assay)", "value": 28, "unit": "µg/mL"}, {"measurement": "EC50", "setting": "[9]; [17]", "value": 5.8, "unit": "µg/mL"}, {"measurement": "EC50", "setting": "[9]; [18]", "value": 2.7, "unit": "µg/mL"}, {"measurement": "EC50", "setting": "[10]; [13]", "value": 0.77, "unit": "µg/mL"}, {"measurement": "EC50", "setting": "[10]; [14]", "value": 0.55, "unit": "µg/mL"}, {"measurement": "EC50", "setting": "[11]; [13]", "value": "< 0.1", "unit": "µg/mL"}, {"measurement": "EC50", "setting": "[11]; [14]", "value": "< 0.1", "unit": "µg/mL"}, {"measurement": "EC50", "setting": "[12]; [15]", "value": 0.18, "unit": "µg/mL"}, {"measurement": "EC50", "setting": "[12]; [16]", "value": 0.18, "unit": "µg/mL"}]}, {"compound": "COC(=O)CCN1CCN(c2ccc(Oc3cc(CN4CCC(CNC(C)=O)CC4)cc(-c4cc(Cl)cc(Cl)c4)n3)cn2)CC1", "note": "[Example 385, methyl3-(4-(5-((4-((4-(acetamidomethyl)piperidin-1-yl)methyl)-6-(3,5-dichlorophenyl)pyridin-2-yl)oxy)pyridin-2-yl)piperazin-1-yl)propanoate]", "values": [{"measurement": "inhibition at 1 µM", "setting": "[1]", "value": 14.9, "unit": "%"}, {"measurement": "inhibition at 1 µM", "setting": "dengue virus (DENV)", "value": 48.5, "unit": "%"}, {"measurement": "inhibition at 1 µM", "setting": "Marburg virus (MARV)", "value": 56.7, "unit": "%"}]}, {"compound": "O=C(O)CC1CCN(Cc2cc(Oc3cnc(N4CCN(Cc5cnn[nH]5)CC4)nc3)nc(-c3cc(Cl)cc(Cl)c3)c2)CC1", "note": "[Example 387, 2-(1-((2-((2-(4-((1H-l,2,3-triazol-5-yl)methyl)piperazin-1-yl)pyrimidin-5-yl)oxy)-6-(3,5-dichlorophenyl)pyridin-4-yl)methyl)piperidin-4-yl)acetic acid]", "values": [{"measurement": "inhibition at 1 µM", "setting": "[1]", "value": 36.3, "unit": "%"}, {"measurement": "inhibition at 1 µM", "setting": "dengue virus (DENV)", "value": 39.9, "unit": "%"}, {"measurement": "inhibition at 1 µM", "setting": "Marburg virus (MARV)", "value": 41.4, "unit": "%"}]}, {"compound": "CC(=O)NCC1CCN(Cc2cc(Oc3cnc(N4CCN(CCC(N)=O)CC4)cn3)nc(-c3cc(Cl)cc(Cl)c3)c2)CC1", "note": "[Example 391]", "values": [{"measurement": "inhibition at 1 µM", "setting": "[1]", "value": 14, "unit": "%"}, {"measurement": "inhibition at 1 µM", "setting": "dengue virus (DENV)", "value": 51.4, "unit": "%"}, {"measurement": "inhibition at 1 µM", "setting": "Marburg virus (MARV)", "value": 35.4, "unit": "%"}]}, {"compound": "CCC(=O)NCC1CCN(Cc2cc(Oc3cnc(N4CCN(CCC(C)C(=O)O)CC4)cn3)nc(-c3cc(Cl)cc(Cl)c3)c2)CC1", "note": "(stereo not drawn) [Example 392, 4-(4-(5-((6-(3,5-dichlorophenyl)-4-((4-(propionamidomethyl)piperidin-1-yl)methyl)pyridin-2-yl)oxy)pyrazin-2-yl)piperazin-1-yl)-2-methylbutanoic acid]", "values": [{"measurement": "inhibition at 1 µM", "setting": "[1]", "value": 15.8, "unit": "%"}, {"measurement": "inhibition at 1 µM", "setting": "dengue virus (DENV)", "value": 34.9, "unit": "%"}, {"measurement": "inhibition at 1 µM", "setting": "Marburg virus (MARV)", "value": 60.6, "unit": "%"}]}, {"compound": "COC(=O)NCC1CCN(Cc2cc(Oc3cnc(N4CCN(C)CC4)cn3)nc(-c3cc(Cl)cc(Cl)c3)c2)CC1", "note": "[Example 395, methyl((1-((2-(3,5-dichlorophenyl)-6-((5-(4-methylpiperazin-1-yl)pyrazin-2-yl)oxy)pyridin-4-yl)methyl)piperidin-4-yl)methyl)carbamate]", "values": [{"measurement": "inhibition at 1 µM", "setting": "[1]", "value": 0, "unit": "%"}, {"measurement": "inhibition at 1 µM", "setting": "dengue virus (DENV)", "value": 88.2, "unit": "%"}, {"measurement": "inhibition at 1 µM", "setting": "Marburg virus (MARV)", "value": 37.2, "unit": "%"}]}, {"compound": "CC(=O)NCC1CCN(Cc2cc(Oc3cnc(N4CCN(CCC(C)C(=O)O)CC4)cn3)nc(-c3cc(Cl)cc(Cl)c3)c2)CC1", "note": "(stereo not drawn) [Example 396, 4-(4-(5-((4-((4-(acetamidomethyl)piperidin-1-yl)methyl)-6-(3,5-dichlorophenyl)pyridin-2-yl)oxy)pyrazin-2-yl)piperazin-1-yl)-2-methylbutanoic acid]", "values": [{"measurement": "inhibition at 1 µM", "setting": "[1]", "value": 21.5, "unit": "%"}, {"measurement": "inhibition at 1 µM", "setting": "dengue virus (DENV)", "value": 46.3, "unit": "%"}, {"measurement": "inhibition at 1 µM", "setting": "Marburg virus (MARV)", "value": 26.7, "unit": "%"}]}, {"compound": "CN1CCCN(c2ncc(Oc3cc(CN4CC[C@@H]5[C@H](CC4)[C@H]5C(=O)O)cc(-c4cc(Cl)cc(Cl)c4)n3)cn2)CC1", "note": "[Example 397, (1R,7S,8r)-4-((2-(3,5-dichlorophenyl)-6-((2-(4-methyl-1,4-diazepan-1-yl)pyrimidin-5-yl)oxy)pyridin-4-yl)methyl)-4-azabicyclo[5.1.0]octane-8-carboxylic acid]", "values": [{"measurement": "inhibition at 1 µM", "setting": "[1]", "value": 25.1, "unit": "%"}, {"measurement": "inhibition at 1 µM", "setting": "dengue virus (DENV)", "value": 38.7, "unit": "%"}, {"measurement": "inhibition at 1 µM", "setting": "Marburg virus (MARV)", "value": 46.2, "unit": "%"}]}]}
